Results taken from ChEMBL document CHEMBL6083236, “Identification of novel diarylpyrimidine derivatives as potent HIV-1 non-nucleoside reverse transcriptase inhibitors against wild-type and K103N mutant viruses” (Eur J Med Chem, 2024).

How the values were obtained:
MT4 = test: Cytotoxicity against human MT4 cells assessed as reduction in cell viability incubated for 5 days by Spectrophotometric based MTT assay; assay type: functional; conditions: MT4, 120 h, time 5 day
[1] = tested on: Human immunodeficiency virus 1; test: Antiviral activity against HIV1 harboring K103 N mutant infected in human MT4 cells assessed as reduction in virus induced cytopathic effect incubated for 5 days by Spectrophotometric based MTT assay; assay type: functional, organism-based; conditions: Human immunodeficiency virus 1, MT4, 120 h
[2] = tested on: Human immunodeficiency virus 1; test: Antiviral activity against HIV1 harboring E138K mutant infected in human MT4 cells assessed as reduction in virus induced cytopathic effect incubated for 5 days by Spectrophotometric based MTT assay; assay type: functional, organism-based; conditions: Human immunodeficiency virus 1, MT4, 120 h
[3] = tested on: Human immunodeficiency virus 1; test: Antiviral activity against HIV1 harboring Y181C mutant infected in human MT4 cells assessed as reduction in virus induced cytopathic effect incubated for 5 days by Spectrophotometric based MTT assay; assay type: functional, organism-based; conditions: Human immunodeficiency virus 1, MT4, 120 h
[4] = tested on: Human immunodeficiency virus 1; test: Antiviral activity against HIV1 harboring Y188L mutant infected in human MT4 cells assessed as reduction in virus induced cytopathic effect incubated for 5 days by Spectrophotometric based MTT assay; assay type: functional, organism-based; conditions: Human immunodeficiency virus 1, MT4, 120 h
[5] = Selectivity index, ratio of CC50 for cytotoxicity against human MT4 cells to EC50 for antiviral activity against wild type HIV1 IIIB infected in human MT4 cells; conditions: MT4 cells
[6] = target: Human immunodeficiency virus type 1 reverse transcriptase (Human immunodeficiency virus 1, UniProt Q72547); test: Inhibition of wild type HIV1 reverse transcriptase assessed as inhibition of biotin deoxyuridine triphosphate incorporation into cDNA using DIG-labelled dNTP preincubated with compound for 1 hr followed by substrate addition in presence of biotin-labeled dNTPs by ELISA analysis
[7] = tested on: Human immunodeficiency virus 1; test: Antiviral activity against HIV1 harboring F227L/V106A mutant infected in human MT4 cells assessed as reduction in virus induced cytopathic effect incubated for 5 days by Spectrophotometric based MTT assay; assay type: functional, organism-based; conditions: Human immunodeficiency virus 1, MT4, 120 h
[8] = tested on: Human immunodeficiency virus 1; test: Antiviral activity against HIV1 harboring L100I mutant infected in human MT4 cells assessed as reduction in virus induced cytopathic effect incubated for 5 days by Spectrophotometric based MTT assay; assay type: functional, organism-based; conditions: Human immunodeficiency virus 1, MT4, 120 h
[9] = tested on: Human immunodeficiency virus 1; test: Antiviral activity against wild type HIV1 IIIB infected in human MT4 cells assessed as reduction in virus induced cytopathic effect incubated for 5 days by Spectrophotometric based MTT assay; assay type: functional, organism-based; conditions: Human immunodeficiency virus 1, IIIB, MT4, 120 h
[10] = Selectivity index, ratio of CC50 for cytotoxicity against human MT4 cells to EC50 for antiviral activity against HIV1 RES056 mutant infected in human MT4 cells; conditions: MT4 cells
[11] = tested on: Human immunodeficiency virus 1; test: Antiviral activity against HIV1 harboring RES056 mutant infected in human MT4 cells assessed as reduction in virus induced cytopathic effect incubated for 5 days by Spectrophotometric based MTT assay; assay type: functional, organism-based; conditions: Human immunodeficiency virus 1, RES056, MT4, 120 h

Structure (SMILES)	CC50 (MT4) [nM]	EC50 [1] [nM]	EC50 [2] [nM]	EC50 [3] [nM]	EC50 [4] [nM]	selectivity ratio [5]	IC50 [6] [nM]	EC50 [7] [nM]	EC50 [8] [nM]	EC50 [9] [nM]	selectivity ratio [10]	EC50 [11] [nM]
Cc1cc(/C=C/C#N)cc(C)c1Oc1ccnc(Nc2ccc(N3CCN(S(C)(=O)=O)C3=O)c(C#N)c2)n1	35300	2	38	14	1770	29900	240	110	6	1	192	180
Cc1cc(/C=C/C#N)cc(C)c1Oc1ccnc(Nc2ccc(N3CCN(S(N)(=O)=O)CC3)c(C#N)c2)n1	5880	3	29	32	1170	1540	130	13	7	4	26	230
